According to US20260062422A1 (Halda Therapeutics OpCo, Inc., priority 2022, published 2026):

Assay: Cellular growth inhibition, T-Rex 293 SC cells with doxycycline (progesterone receptor isoform B induced), Example 45
Format: cell-based
Details: progesterone receptor isoform B induced with 10 ng/mL doxycycline, 72 hours, CellTiter-Glo 2.0, Table 11
Experimental: The following types of cells were prepared for this experiment: (i) a T-Rex 293 cell line having increased expression of progesterone receptor isoform B protein due to exposure to doxycycline and (ii) a T-Rex 293 cell line lacking increased expression of progesterone receptor isoform B protein. Ability of the test compounds to inhibit proliferation of the foregoing cell types was evaluated according to the procedures set forth below.
The doxycycline-inducible progesterone receptor isoform B protein expressing cell line was established using the following protocol: T-Rex 293 cells were purchased from Invitrogen (Cat #R71007) and transfected using Lipofectamine 2000 with the wild-type progesterone receptor B protein sequence cloned into the pcDNA4/TO vector. Transfected cells were selected using 400 μg/mL Zeocin (Invitrogen Cat #R25001). Following selection, single clones were raised and maintained in Dulbecco's Modified Eagle Medium (DMEM) supplemented with 10% w/w Tetracycline-free fetal bovine serum (FBS) and 250 μg/mL Zeocin. Clones were analyzed for expression of progesterone receptor isoform B protein in the presence and absence of 10 ng/mL doxycycline (Sigma Cat #D9891), and a single doxycycline-inducible clone (hereinafter “SC”) was selected for use in downstream assays.
The SC cells were seeded on poly-D-lysine coated, black clear-bottom 384-well plates at 2500/well, in 25 μL Phenol Red Free Dulbecco's Modified Eagle Medium (DMEM) supplemented with 10% w/w charcoal-dextran treated fetal bovine serum (FBS) and 1% w/w pen-strep, with or without 10 ng/mL doxycycline. Pen-Strep is a commercially available mixture of penicillin G and streptomycin, which is used in mammalian cell culture media to prevent bacterial contamination. Phenol Red Free Dulbecco's Modified Eagle Medium (DMEM) supplemented with 10% w/w charcoal-dextran treated fetal bovine serum (FBS) and 1% w/w pen-strep, with or without 10 ng/mL doxycycline is herein referred to as Treatment Medium. Following seeding of cells in the plates, the plates were spun at 300×g for 30 seconds, then equilibrated to room temperature for 30 minutes, and then deposited in a humidified tissue culture incubator maintained at 37° C. with 5% CO2.
At 24 hours after seeding of the cells, dilutions of test compound were prepared in DMSO and dissolved in Treatment Medium, to achieve a final DMSO concentration of 0.5% w/w, thereby providing the Test Compound Solution. A 25 μL aliquot of the Test Compound Solution was added to cells in the well plates. An equal volume of a solution containing DMSO and Treatment Medium was used as a negative control. Following treatment of cells with Test Compound Solution or said equal volume of a solution containing DMSO and Treatment Medium, the plates were spun at 300×g for 30 seconds, and then left in an incubator for 72 hours.
At the end of the treatment duration, cell viability was quantified with CellTiter-Glo 2.0 reagent (Promega Cat #G9243). For this purpose, plates were equilibrated to room temperature for 30 minutes, and then 25 μL of CellTiter-Glo 2.0 reagent was added to cells in the plate wells. Plates were then agitated on a shaker for two minutes at 500 rpm and subsequently incubated at room temperature for 10 minutes. Following incubation, the plates were spun at 3000×g for 30 seconds, then sealed with an optical adhesive cover, and luminescence readings were measured with an EnVision Plate Reader (Perkin Elmer).
Data was normalized using zero luminescence for baseline. A four-parameter non-linear regression curve fit was applied to dose-response data in GraphPad Prism data analysis software to determine the half-maximal growth inhibitory concentration (GI50) for each test compound.

| SMILES | GI50 |
| --- | --- |
| CCNC(=O)C[C@@H]1N=C(c2ccc(C#CCN3CCN(c4ncc(C(=O)N[C@H]5C(C)(C)[C@H](Oc6ccc(C#N)c(Cl)c6)C5(C)C)cn4)CC3)cc2)c2c(sc(C)c2C)-n2c(C)nnc21 [Compound I-54, N-[3-(3-chloro-4-cyano-phenoxy)-2,2,4,4-tetramethyl-cyclobutyl]-2-[4-[3-[4-[(9S)-9-[2-(ethylamino)-2-oxo-ethyl]-4,5,13-trimethyl-3-thia-1,8,11,12-tetrazatricyclo[8.3.0.02,6]trideca-2(6),4,7,10,12-pentaen-7-yl]phenyl]prop-2-ynyl]piperazin-1-yl]pyrimidine-5-carboxamide] | < 500 nM |
| Cc1sc2c(c1C)C(c1ccc(C#CCN3CCN(c4ncc(C(=O)N[C@H]5C(C)(C)[C@H](Oc6ccc(C#N)c(Cl)c6)C5(C)C)cn4)CC3)cc1)=N[C@@H](CC(=O)OC(C)(C)C)c1nnc(C)n1-2 [Compound I-55] | < 500 nM |
| CCNC(=O)C[C@@H]1N=C(c2ccc(OCCOC3CCN(c4ncc(C(=O)N[C@H]5C(C)(C)[C@H](Oc6ccc(C#N)c(Cl)c6)C5(C)C)cn4)CC3)cc2)c2c(sc(C)c2C)-n2c(C)nnc21 [Compound I-60, N-((1r,3r)-3-(3-chloro-4-cyanophenoxy)-2,2,4,4-tetramethylcyclobutyl)-2-(4-(2-(4-((S)-6-(2-(ethylamino)-2-oxoethyl)-2,3,9-trimethyl-6H-thieno[3,2-f][1,2,4]triazolo[4,3-a][1,4]diazepin-4-yl)phenoxy)ethoxy)piperidin-1-yl)pyrimidine-5-carboxamide] | < 500 nM |
| CCNC(=O)C[C@@H]1N=C(c2ccc(OC3CCN(c4ncc(C(=O)N[C@H]5C(C)(C)[C@H](Oc6ccc(C#N)c(Cl)c6)C5(C)C)cn4)CC3)cc2)c2c(sc(C)c2C)-n2c(C)nnc21 [Compound I-61] | < 500 nM |
| CCNC(=O)C[C@@H]1N=C(c2ccc(Oc3ncc(C(=O)N[C@H]4C(C)(C)[C@H](Oc5ccc(C#N)c(Cl)c5)C4(C)C)cn3)cc2)c2c(sc(C)c2C)-n2c(C)nnc21 [Compound I-84] | < 500 nM |
| CCNC(=O)C[C@@H]1N=C(c2ccc(OC3CCN(C4CCN(c5ncc(C(=O)N[C@H]6C(C)(C)[C@H](Oc7ccc(C#N)c(Cl)c7)C6(C)C)cn5)CC4)C3)cc2)c2c(sc(C)c2C)-n2c(C)nnc21 (some centres unmarked) [Compound I-85] | < 500 nM |
| CCNC(=O)C[C@@H]1N=C(c2ccc(N(C3CC3)C3CN(CC4CCN(c5ncc(C(=O)N[C@H]6C(C)(C)[C@H](Oc7ccc(C#N)c(Cl)c7)C6(C)C)cn5)CC4)C3)cc2)c2c(sc(C)c2C)-n2c(C)nnc21 [Compound I-129] | < 500 nM |
| CCNC(=O)C[C@@H]1N=C(c2ccc(N(C)C3CC(OC4CCN(c5ncc(C(=O)N[C@H]6C(C)(C)[C@H](Oc7ccc(C#N)c(Cl)c7)C6(C)C)cn5)CC4)C3)cc2)c2c(sc(C)c2C)-n2c(C)nnc21 (some centres unmarked) [Compound I-130] | < 500 nM |
| Cc1sc2c(c1C)C(c1ccc(CCCOC3CCN(c4ncc(C(=O)N[C@H]5C(C)(C)[C@H](Oc6ccc(C#N)c(Cl)c6)C5(C)C)cn4)CC3)cc1)=N[C@@H](Cc1ncco1)c1nnc(C)n1-2 [Compound I-131, N-[3-(3-chloro-4-cyano-phenoxy)-2,2,4,4-tetramethyl-cyclobutyl]-2-[4-[3-[4-[(9S)-4,5,13-trimethyl-9-(oxazol-2-ylmethyl)-3-thia-1,8,11,12-tetrazatricyclo[8.3.0.02,6]trideca-2(6),4,7,10,12-pentaen-7-yl]phenyl]propoxy]-1-piperidyl]pyrimidine-5-carboxamide] | < 500 nM |
| Cc1sc2c(c1C)C(c1ccc(CC3CC(C4CCN(c5ncc(C(=O)N[C@H]6C(C)(C)[C@H](Oc7ccc(C#N)c(Cl)c7)C6(C)C)cn5)CC4)C3)cc1)=NC(Cc1ncco1)c1nnc(C)n1-2 (some centres unmarked) [Compound I-136] | < 500 nM |
| Cc1sc2c(c1C)C(c1ccc(CC3CN(CC4CCN(c5ncc(C(=O)N[C@H]6C(C)(C)[C@H](Oc7ccc(C#N)c(Cl)c7)C6(C)C)cn5)CC4)C3)cc1)=N[C@@H](Cc1ncco1)c1nnc(C)n1-2 [Compound I-153] | < 500 nM |
| Cc1sc2c(c1C)C(c1ccc(C[C@H]3C[C@@H]([C@@H]4CCCN(c5ncc(C(=O)N[C@H]6C(C)(C)[C@H](Oc7ccc(C#N)c(Cl)c7)C6(C)C)cn5)C4)C3)cc1)=N[C@@H](Cc1ncco1)c1nnc(C)n1-2 [Compound I-161] | < 500 nM |
| Cc1sc2c(c1C)C(c1ccc(OC3CN(CC4CCN(c5ncc(C(=O)N[C@H]6C(C)(C)[C@H](Oc7ccc(C#N)c(Cl)c7)C6(C)C)cn5)CC4)C3)cc1)=N[C@H](Cc1ncco1)c1nnc(C)n1-2 [Compound I-169] | < 500 nM |
| Cc1sc2c(c1C)C(c1ccc(O[C@H]3CC[C@@]4(CCCN(c5ncc(C(=O)N[C@H]6C(C)(C)[C@H](Oc7ccc(C#N)c(Cl)c7)C6(C)C)cn5)C4)CC3)cc1)=N[C@@H](Cc1ncco1)c1nnc(C)n1-2 [Compound I-172] | < 500 nM |
| Cc1sc2c(c1C)C(c1ccc(N3CC(C4CCN(c5ncc(C(=O)N[C@H]6C(C)(C)[C@H](Oc7ccc(C#N)c(Cl)c7)C6(C)C)cn5)CC4)C3)cc1)=NC(Cc1ncco1)c1nnc(C)n1-2 (some centres unmarked) [Compound I-209] | < 500 nM |
| COCC[C@@H]1N=C(c2ccc(CCCOC3CCN(c4ncc(C(=O)N[C@H]5C(C)(C)[C@H](Oc6ccc(C#N)c(Cl)c6)C5(C)C)cn4)CC3)cc2)c2c(sc(C)c2C)-n2c(C)nnc21 [Compound I-227, N-[3-(3-chloro-4-cyano-phenoxy)-2,2,4,4-tetramethyl-cyclobutyl]-2-[4-[3-[4-[(9S)-9-(2-methoxyethyl)-4,5,13-trimethyl-3-thia-1,8,11,12-tetrazatricyclo[8.3.0.02,6]trideca-2(6),4,7,10,12-pentaen-7-yl]phenyl]propoxy]-1-piperidyl]pyrimidine-5-carboxamide] | < 500 nM |
| Cc1sc2c(c1C)C(c1ccc(CCCOC3CCN(c4ncc(C(=O)N[C@H]5C(C)(C)[C@H](Oc6ccc(C#N)c(Cl)c6)C5(C)C)cn4)CC3)cc1)=N[C@@H](C)c1nnc(C)n1-2 [Compound I-228, N-[3-(3-chloro-4-cyano-phenoxy)-2,2,4,4-tetramethyl-cyclobutyl]-2-[4-[3-[4-[(9S)-4,5,9,13-tetramethyl-3-thia-1,8,11,12-tetrazatricyclo [8.3.0.02,6]trideca-2(6),4,7,10,12-pentaen-7-yl]phenyl]propoxy]-1-piperidyl]pyrimidine-5-carboxamide] | < 500 nM |
| Cc1sc2c(c1C)C(c1ccc(OCCOC3CCN(c4ncc(C(=O)N[C@H]5C(C)(C)[C@H](Oc6ccc(C#N)c(Cl)c6)C5(C)C)cn4)CC3)cc1)=N[C@@H](CC(=O)OC(C)(C)C)c1nnc(C)n1-2 [Compound I-235, tert-butyl 2-((S)-4-(4-(2-((1-(5-(((1r,3r)-3-(3-chloro-4-cyanophenoxy)-2,2,4,4-tetramethylcyclobutyl)carbamoyl)pyrimidin-2-yl)piperidin-4-yl)oxy)ethoxy)phenyl)-2,3,9-trimethyl-6H-thieno[3,2-f][1,2,4]triazolo[4,3-a][1,4]diazepin-6-yl)acetate] | < 500 nM |
| Cc1sc2c(c1C)C(c1ccc(C3CC3C3CC4(CCN(c5ncc(C(=O)N[C@H]6C(C)(C)[C@H](Oc7ccc(C#N)c(Cl)c7)C6(C)C)cn5)CC4)C3)cc1)=N[C@@H](Cc1ncco1)c1nnc(C)n1-2 (some centres unmarked) [Compound I-237] | < 500 nM |
| Cc1sc2c(c1C)C(c1ccc(CCC3CC4(CCCN(c5ncc(C(=O)N[C@H]6C(C)(C)[C@H](Oc7ccc(C#N)c(Cl)c7)C6(C)C)cn5)C4)C3)cc1)=N[C@@H](Cc1ncco1)c1nnc(C)n1-2 [Compound I-241] | < 500 nM |
